# Assay results as given in US7300918B2, “Method of producing vaccines from protein signal oligopeptides” (priority 1994, dated 2007).
# Where “and” joins values, the source holds several entries; their conditions need not be identical. Equal entries are not always repeated.
# Test system: Hep G2 cells
# Assay: Cholesterol measurement in Hep G2 cells exposed to HMG CoA Reductase peptides
# Type: cell-based, human
# Conditions: 24 hrs; for Cholesterol Content Cell / Cholesterol Content Media: triplicate; for Total Cholesterol: cell + media
# Description: Cholesterol Measurement in Hep G2 Cells Exposed to HMG CoA Reductase Peptides:
# A. Selection of therapeutic oligopeptides for these expenments • i. The peptides were selected according to the method described herein. In brief, 6 oligopeptides corresponding to the hydrophilic amino acid maxima of human hydroxy-methyl-glutaryl-CoA-reductase were selected according to the maximum hydrophilicity determining algorithm described herein. The following sequences were selected. • I. N-SQDEVREN-C (SEQ ID NO:42) • II. N-ELSRESREGR-C (SEQ ID NO:44) • III. N-RVLEEEENK-C (SEQ ID NO:46) • IV. N-QKCDSVEE-C (SEQ ID NO:56) • V. N-EETGINRERKVE-C (SEQ ID NO:60) • VI. N-EPEIELPREPRPNEE-C (SEQ ID NO:64)
# B. Materials and methods • i. Hep G2 cells were seeded into six-well dishes at 30,0000 cells/well in MEM-supplemented media with 10% FBS. Cells were grown to near confluency and exposed to • I. media alone • II. Mevastatin 5ΦMol (Cholestrol-lowering Statin drug) and, • III. HMG CoA Reductase peptides at 1, 10 and 100 ΦMol. • ii. All treatments were carried out in triplicate. After 24 hrs the media was removed and saved. • iii. The cells were washed with 1 ml of PBS and combined with the media. The cells were harvested with 1 ml of 0.1 N NaOH. • iv. Samples, both media and cells, were saponified with 0.5 ml 50% KOH, 3 ml ethanol, separately at 80EC for 2 hrs. • v. After cooling, the samples were extracted twice with petroleum ether and washed with NaOH. • vi. The samples were the dried under nitrogen and suspended in 200 Φl ethanol. • vii. 50 Φl of this suspension was used for determination of cholesterol. Cholesterol was determined in the samples and standards using colorimetric assay (Sigma Kit). • viii. Protein was determined by Lowry's method and the results were expressed as Φgm cholesterol/mg protein. C. Results • i.
Compound,Cholesterol Lowering in % of Control (1 ΦM) [%],Cholesterol Content Cell (1 ΦM),Cholesterol Content Media (1 ΦM),Cholesterol Lowering in % of Control (10 ΦM) [%],Cholesterol Content Cell (10 ΦM),Cholesterol Content Media (10 ΦM),Cholesterol Lowering in % of Control (100 ΦM) [%],Cholesterol Content Cell (100 ΦM),Cholesterol Content Media (100 ΦM),Total Cholesterol (1 ΦM),Total Cholesterol (10 ΦM),Total Cholesterol (100 ΦM),Cholesterol Lowering in % of Control (5 ΦM),Cholesterol Content Cell (5 ΦM),Cholesterol Content Media (5 ΦM),Total Cholesterol (5 ΦM)
"N-QKCDSVEE-C [Peptide 4, oligopeptide corresponding to a hydrophilic amino acid maximum of human hydroxy-methyl-glutaryl-CoA-reductase]",8.0,134.7 ± 3.2 Φ gm/mg protein,50.4 ± 2.5 Φ gm/mg protein,10.0,126.1 ± 4.2 Φ gm/mg protein,49.0 ± 1.0 Φ gm/mg protein,9.0,127.7 ± 9.3 Φ gm/mg protein,53.8 ± 0.5 Φ gm/mg protein,184.3 ± 5.5 Φ gm/mg protein,175.2 ± 3.8 Φ gm/mg protein,181.7 ± 9.3 Φ gm/mg protein,–,–,–,–
"N-EPEIELPREPRPNEE-C [Peptide 6, oligopeptide corresponding to a hydrophilic amino acid maximum of human hydroxy-methyl-glutaryl-CoA-reductase]",4.0,144.3 ± 7.5 Φ gm/mg protein,47.4 ± 0.5 Φ gm/mg protein,8.0,136.0 ± 12.2 Φ gm/mg protein,48.0 ± 3.4 Φ gm/mg protein,9.0,132.0 ± 4.4 Φ gm/mg protein,50.4 ± 1.0 Φ gm/mg protein,192.0 ± 8.0 Φ gm/mg protein,184.0 ± 8.4 Φ gm/mg protein,182.4 ± 4.8 Φ gm/mg protein,–,–,–,–
"N-SQDEVREN-C [Peptide 1, oligopeptide corresponding to a hydrophilic amino acid maximum of human hydroxy-methyl-glutaryl-CoA-reductase]",28.0,92.5 ± 4.7 Φ gm/mg protein,65.2 ± 4.0 Φ gm/mg protein,30.0,88.6 ± 1.6 Φ gm/mg protein,60.6 ± 0.5 Φ gm/mg protein,30.0,94.0 ± 4.0 Φ gm/mg protein,61.1 ± 2.4 Φ gm/mg protein,158.7 ± 5.6 Φ gm/mg protein,149.1 ± 2.0 Φ gm/mg protein,155.3 ± 6.4 Φ gm/mg protein,–,–,–,–
"N-RVLEEEENK-C [Peptide 3, oligopeptide corresponding to a hydrophilic amino acid maximum of human hydroxy-methyl-glutaryl-CoA-reductase]",10.0,137.3 ± 4.5 Φ gm/mg protein,64.0 ± 2.7 Φ gm/mg protein,10.0,135.0 ± 4.5 Φ gm/mg protein,65.5 ± 4.7 Φ gm/mg protein,10.0,135.0 ± 7.0 Φ gm/mg protein,65.5 ± 1.4 Φ gm/mg protein,201.3 ± 3.3 Φ gm/mg protein,200.7 ± 9.0 Φ gm/mg protein,200.5 ± 5.4 Φ gm/mg protein,–,–,–,–
"N-ELSRESREGR-C [Peptide 2, oligopeptide corresponding to a hydrophilic amino acid maximum of human hydroxy-methyl-glutaryl-CoA-reductase]",29.0,94.0 ± 8.3 Φ gm/mg protein,64.3 ± 4.2 Φ gm/mg protein,33.0,85.0 ± 8.4 Φ gm/mg protein,63.7 ± 9.5 Φ gm/mg protein,34.0,86.0 ± 4.7 Φ gm/mg protein,59.0 ± 6.0 Φ gm/mg protein,158.3 ± 6.3 Φ gm/mg protein,148.6 ± 11.8 Φ gm/mg protein,146.9 ± 8.8 Φ gm/mg protein,–,–,–,–
"N-EETGINRERKVE-C [Peptide 5, oligopeptide corresponding to a hydrophilic amino acid maximum of human hydroxy-methyl-glutaryl-CoA-reductase]",1.5,140.7 ± 8.6 Φ gm/mg protein,56.8 ± 1.0 Φ gm/mg protein,0.0,149.0 ± 4.4 Φ gm/mg protein,50.7 ± 1.0 Φ gm/mg protein,0.0,161.7 ± 23.5 Φ gm/mg protein,48.0 ± 1.6 Φ gm/mg protein,197.0 ± 9.2 Φ gm/mg protein,200.0 ± 5.0 Φ gm/mg protein,210.0 ± 25.0 Φ gm/mg protein,–,–,–,–
"CC[C@H](C)C(=O)O[C@H]1CCC=C2C=C[C@H](C)[C@H](CC[C@@H]3C[C@@H](O)CC(=O)O3)[C@H]21 [Mevastatin, reference compound]",–,–,–,–,–,–,–,–,–,–,–,–,19.0% and 18.0%,125.0 ± 4.6 Φ gm/mg protein and 124.4 ± 4.4 Φ gm/mg protein,37.5 ± 3.0 Φ gm/mg protein and 57.5 ± 5.2 Φ gm/mg protein,162.6 ± 7.6 Φ gm/mg protein and 182.0 ± 7.0 Φ gm/mg protein
